SMILES strings stand for the structures. The source made the active and inactive calls. Cut-off read from the data, not from the text of the source, for most assays here: actives have a measured Kd and inactives only a lower limit.

Assay [1] has as its target Bone morphogenetic protein receptor type-1B (Homo sapiens, UniProt O00238).
For assay [2], the target named is Cyclin-dependent kinase 5 (Homo sapiens, UniProt Q00535).
Assay [3] addresses Epithelial discoidin domain-containing receptor 1 (Homo sapiens, UniProt Q08345).
For assay [4], the target named is T1, ATP-dependent RNA helicase DHX30 (Homo sapiens, UniProt Q7L2E3).
T1 sequence (Q7L2E3 whole entry): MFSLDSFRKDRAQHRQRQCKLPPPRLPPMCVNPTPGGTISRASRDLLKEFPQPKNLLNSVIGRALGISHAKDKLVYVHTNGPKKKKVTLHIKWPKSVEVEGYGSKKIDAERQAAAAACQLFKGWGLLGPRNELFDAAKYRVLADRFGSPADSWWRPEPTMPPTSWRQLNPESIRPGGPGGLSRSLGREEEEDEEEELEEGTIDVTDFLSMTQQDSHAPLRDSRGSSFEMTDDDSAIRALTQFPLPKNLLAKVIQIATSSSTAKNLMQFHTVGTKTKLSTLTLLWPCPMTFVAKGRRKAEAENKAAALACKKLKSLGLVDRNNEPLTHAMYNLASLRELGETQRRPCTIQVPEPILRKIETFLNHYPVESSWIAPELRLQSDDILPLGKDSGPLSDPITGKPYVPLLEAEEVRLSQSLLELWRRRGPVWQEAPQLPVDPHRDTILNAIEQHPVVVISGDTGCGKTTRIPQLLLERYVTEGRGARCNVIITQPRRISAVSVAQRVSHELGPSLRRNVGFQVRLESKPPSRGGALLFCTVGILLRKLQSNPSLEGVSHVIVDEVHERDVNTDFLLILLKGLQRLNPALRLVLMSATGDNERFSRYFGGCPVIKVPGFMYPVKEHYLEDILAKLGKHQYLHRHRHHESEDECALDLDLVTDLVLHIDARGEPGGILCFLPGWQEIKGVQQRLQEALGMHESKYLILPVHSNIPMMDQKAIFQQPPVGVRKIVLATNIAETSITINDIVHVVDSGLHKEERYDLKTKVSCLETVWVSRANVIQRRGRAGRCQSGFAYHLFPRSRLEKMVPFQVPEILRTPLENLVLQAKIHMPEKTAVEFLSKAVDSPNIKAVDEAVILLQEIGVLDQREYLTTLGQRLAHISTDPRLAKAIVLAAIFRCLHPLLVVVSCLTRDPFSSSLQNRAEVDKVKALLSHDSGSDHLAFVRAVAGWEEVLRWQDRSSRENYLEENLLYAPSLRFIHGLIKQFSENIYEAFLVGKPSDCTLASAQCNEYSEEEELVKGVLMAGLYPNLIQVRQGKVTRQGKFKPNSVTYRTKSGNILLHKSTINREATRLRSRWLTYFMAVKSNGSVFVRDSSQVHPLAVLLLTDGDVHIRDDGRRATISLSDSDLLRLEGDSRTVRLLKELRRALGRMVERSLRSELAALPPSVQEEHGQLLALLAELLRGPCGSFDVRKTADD

The target of assay [5] is T2, Ferrochelatase, mitochondrial (Homo sapiens, UniProt P22830).
T2 sequence (P22830 whole entry): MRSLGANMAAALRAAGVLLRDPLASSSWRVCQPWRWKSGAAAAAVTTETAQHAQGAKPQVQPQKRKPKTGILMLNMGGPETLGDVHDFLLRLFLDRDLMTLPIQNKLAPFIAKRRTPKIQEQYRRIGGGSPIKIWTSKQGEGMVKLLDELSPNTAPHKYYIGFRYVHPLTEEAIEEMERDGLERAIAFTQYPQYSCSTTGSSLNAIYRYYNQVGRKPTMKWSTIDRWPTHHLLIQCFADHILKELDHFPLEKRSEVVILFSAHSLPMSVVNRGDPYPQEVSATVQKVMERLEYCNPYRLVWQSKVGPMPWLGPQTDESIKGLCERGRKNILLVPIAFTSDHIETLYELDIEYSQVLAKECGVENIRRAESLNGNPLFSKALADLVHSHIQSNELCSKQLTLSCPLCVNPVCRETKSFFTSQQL

For assay [6], the target named is Tyrosine-protein kinase Fer (Homo sapiens, UniProt P16591).
Assay [7] has as its target G protein-coupled receptor kinase 6 (Homo sapiens, UniProt P43250).
Assay [8] deals with Insulin receptor (Homo sapiens, UniProt P06213).
For assay [9], the target named is T3, Bifunctional phosphoribosylaminoimidazole carboxylase/phosphoribosylaminoimidazole succinocarboxamide synthetase (Homo sapiens, UniProt P22234).
T3 sequence (P22234 whole entry): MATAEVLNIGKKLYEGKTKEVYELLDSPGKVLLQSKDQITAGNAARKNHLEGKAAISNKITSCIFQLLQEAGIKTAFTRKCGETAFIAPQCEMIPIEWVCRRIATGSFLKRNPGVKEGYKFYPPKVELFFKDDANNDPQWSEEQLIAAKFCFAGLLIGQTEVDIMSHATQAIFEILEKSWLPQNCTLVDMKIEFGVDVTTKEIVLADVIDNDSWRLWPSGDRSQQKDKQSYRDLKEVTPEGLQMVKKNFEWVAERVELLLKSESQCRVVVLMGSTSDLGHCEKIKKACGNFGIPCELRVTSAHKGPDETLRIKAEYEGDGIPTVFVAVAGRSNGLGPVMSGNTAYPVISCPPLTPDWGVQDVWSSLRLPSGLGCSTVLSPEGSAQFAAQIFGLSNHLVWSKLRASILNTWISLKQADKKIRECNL

Assay [10] deals with Serine/threonine-protein kinase N1 (Homo sapiens, UniProt Q16512).
Sequence of Serine/threonine-protein kinase N1 (Q16512 whole entry): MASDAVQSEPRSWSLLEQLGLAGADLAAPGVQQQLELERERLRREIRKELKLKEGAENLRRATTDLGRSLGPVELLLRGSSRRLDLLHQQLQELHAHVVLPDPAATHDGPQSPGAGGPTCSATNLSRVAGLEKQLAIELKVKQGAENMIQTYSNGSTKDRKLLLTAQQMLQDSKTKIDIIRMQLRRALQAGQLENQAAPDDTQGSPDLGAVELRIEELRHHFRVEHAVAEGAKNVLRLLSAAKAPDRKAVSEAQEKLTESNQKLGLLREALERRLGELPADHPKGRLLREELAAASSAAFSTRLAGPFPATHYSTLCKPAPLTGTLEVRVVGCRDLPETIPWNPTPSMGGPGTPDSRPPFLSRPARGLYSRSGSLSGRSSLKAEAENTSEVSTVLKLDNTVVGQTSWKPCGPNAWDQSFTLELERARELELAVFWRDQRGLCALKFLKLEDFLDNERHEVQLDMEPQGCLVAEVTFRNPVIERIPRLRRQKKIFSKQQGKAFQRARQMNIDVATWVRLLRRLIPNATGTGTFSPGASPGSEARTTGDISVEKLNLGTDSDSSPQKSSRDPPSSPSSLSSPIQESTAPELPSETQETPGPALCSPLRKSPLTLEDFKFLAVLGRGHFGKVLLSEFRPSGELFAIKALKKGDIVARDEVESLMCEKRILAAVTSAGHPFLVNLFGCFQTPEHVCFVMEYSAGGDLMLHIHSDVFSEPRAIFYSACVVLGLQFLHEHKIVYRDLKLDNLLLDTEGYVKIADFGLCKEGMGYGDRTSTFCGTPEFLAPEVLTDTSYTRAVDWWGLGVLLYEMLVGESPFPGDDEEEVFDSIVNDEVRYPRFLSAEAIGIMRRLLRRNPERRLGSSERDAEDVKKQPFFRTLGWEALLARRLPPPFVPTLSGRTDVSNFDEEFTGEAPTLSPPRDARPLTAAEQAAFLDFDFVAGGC
Assay [11] deals with Proto-oncogene tyrosine-protein kinase receptor Ret (Homo sapiens, UniProt P07949).
Sequence of Proto-oncogene tyrosine-protein kinase receptor Ret (P07949 whole entry): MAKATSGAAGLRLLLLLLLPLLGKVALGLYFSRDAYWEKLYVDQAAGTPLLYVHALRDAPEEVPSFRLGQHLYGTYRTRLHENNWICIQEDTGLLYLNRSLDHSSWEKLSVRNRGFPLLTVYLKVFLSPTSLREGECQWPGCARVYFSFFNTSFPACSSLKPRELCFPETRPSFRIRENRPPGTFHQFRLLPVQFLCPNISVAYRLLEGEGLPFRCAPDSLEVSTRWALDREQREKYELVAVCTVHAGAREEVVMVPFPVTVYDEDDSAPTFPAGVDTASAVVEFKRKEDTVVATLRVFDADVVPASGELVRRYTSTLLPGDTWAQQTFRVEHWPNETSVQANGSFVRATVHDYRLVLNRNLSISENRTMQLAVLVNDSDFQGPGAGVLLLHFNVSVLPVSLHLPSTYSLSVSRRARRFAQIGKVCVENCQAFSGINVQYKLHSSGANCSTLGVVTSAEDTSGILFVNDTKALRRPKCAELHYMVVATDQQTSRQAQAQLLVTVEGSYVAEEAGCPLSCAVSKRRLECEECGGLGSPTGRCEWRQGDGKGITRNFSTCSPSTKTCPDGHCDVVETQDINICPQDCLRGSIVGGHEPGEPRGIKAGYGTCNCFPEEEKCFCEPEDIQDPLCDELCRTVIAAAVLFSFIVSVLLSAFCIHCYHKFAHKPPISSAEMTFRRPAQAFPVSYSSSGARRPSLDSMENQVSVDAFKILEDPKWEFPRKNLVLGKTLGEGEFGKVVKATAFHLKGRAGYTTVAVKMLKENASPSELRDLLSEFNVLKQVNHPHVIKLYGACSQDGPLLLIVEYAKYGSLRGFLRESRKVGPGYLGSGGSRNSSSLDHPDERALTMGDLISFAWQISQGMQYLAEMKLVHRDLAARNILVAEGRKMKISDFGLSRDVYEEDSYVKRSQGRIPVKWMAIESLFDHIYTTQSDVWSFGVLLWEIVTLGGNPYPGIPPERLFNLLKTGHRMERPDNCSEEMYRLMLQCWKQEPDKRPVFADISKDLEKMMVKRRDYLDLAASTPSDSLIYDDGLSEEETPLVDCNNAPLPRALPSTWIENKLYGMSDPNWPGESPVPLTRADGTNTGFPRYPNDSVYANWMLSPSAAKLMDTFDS
Assay [12] has as its target Ribosomal protein S6 kinase alpha-4 (Homo sapiens, UniProt O75676).
Assay [13] has as its target T4, ADP/ATP translocase 2 (Homo sapiens, UniProt P05141).
T4 sequence (P05141 whole entry): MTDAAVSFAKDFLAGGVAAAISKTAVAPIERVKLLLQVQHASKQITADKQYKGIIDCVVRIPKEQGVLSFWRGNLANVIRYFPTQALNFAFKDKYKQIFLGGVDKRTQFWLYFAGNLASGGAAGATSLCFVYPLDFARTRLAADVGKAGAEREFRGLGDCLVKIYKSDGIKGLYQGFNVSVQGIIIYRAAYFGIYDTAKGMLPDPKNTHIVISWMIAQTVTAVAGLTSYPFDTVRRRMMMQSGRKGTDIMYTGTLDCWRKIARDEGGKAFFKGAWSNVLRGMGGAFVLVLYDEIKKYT
Note: in the data inactive means no Kd found up to 30 µM.

Sequence of Epithelial discoidin domain-containing receptor 1 (Q08345 whole entry, the tested form may be a part): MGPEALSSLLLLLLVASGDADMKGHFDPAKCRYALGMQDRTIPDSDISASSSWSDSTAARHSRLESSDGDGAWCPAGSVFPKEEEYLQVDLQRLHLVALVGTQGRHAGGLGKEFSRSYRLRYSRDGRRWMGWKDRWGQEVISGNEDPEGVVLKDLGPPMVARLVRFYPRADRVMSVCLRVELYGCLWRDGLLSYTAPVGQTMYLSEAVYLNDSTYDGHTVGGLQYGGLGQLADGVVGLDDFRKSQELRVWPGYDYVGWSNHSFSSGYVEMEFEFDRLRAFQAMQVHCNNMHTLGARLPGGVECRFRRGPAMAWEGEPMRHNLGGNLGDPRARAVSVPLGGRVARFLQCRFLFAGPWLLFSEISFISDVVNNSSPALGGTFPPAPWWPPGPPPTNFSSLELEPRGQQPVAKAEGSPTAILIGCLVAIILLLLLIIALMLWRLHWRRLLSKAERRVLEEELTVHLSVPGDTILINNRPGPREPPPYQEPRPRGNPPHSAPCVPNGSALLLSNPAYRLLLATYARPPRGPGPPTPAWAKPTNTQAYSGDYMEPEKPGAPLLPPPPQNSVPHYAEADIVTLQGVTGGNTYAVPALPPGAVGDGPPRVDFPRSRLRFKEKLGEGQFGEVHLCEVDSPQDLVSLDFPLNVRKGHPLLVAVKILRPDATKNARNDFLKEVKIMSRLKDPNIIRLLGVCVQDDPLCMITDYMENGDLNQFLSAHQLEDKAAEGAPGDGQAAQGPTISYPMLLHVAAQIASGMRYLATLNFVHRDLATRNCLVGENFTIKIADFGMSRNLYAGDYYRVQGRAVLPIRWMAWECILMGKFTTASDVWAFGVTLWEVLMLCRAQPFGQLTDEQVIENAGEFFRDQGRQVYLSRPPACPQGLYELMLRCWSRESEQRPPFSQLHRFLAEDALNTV
Sequence of Cyclin-dependent kinase 5 (Q00535 whole entry, the tested form may be a part): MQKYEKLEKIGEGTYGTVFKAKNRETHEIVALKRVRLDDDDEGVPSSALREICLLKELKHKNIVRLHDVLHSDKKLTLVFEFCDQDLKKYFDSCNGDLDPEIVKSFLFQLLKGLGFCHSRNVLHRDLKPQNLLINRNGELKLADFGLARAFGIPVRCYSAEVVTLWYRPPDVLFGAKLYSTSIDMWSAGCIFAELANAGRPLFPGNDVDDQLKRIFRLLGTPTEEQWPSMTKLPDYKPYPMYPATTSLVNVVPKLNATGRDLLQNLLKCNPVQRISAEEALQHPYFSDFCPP
Sequence of G protein-coupled receptor kinase 6 (P43250 whole entry): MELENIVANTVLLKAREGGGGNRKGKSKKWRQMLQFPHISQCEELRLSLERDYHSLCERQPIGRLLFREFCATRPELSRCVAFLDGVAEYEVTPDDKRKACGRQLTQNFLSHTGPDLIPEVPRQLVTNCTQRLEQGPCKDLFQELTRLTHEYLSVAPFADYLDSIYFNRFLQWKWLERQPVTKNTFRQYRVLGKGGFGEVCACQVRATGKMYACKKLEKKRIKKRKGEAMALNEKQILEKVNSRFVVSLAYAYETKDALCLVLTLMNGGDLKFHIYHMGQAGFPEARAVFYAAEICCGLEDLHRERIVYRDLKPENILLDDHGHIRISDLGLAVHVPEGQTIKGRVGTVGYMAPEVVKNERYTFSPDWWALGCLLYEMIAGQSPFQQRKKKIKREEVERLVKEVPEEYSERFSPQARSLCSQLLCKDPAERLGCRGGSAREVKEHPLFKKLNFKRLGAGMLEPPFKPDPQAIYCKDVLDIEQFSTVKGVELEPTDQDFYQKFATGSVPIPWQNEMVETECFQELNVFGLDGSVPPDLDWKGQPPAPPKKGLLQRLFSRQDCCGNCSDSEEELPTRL
Sequence of Ribosomal protein S6 kinase alpha-4 (O75676 whole entry): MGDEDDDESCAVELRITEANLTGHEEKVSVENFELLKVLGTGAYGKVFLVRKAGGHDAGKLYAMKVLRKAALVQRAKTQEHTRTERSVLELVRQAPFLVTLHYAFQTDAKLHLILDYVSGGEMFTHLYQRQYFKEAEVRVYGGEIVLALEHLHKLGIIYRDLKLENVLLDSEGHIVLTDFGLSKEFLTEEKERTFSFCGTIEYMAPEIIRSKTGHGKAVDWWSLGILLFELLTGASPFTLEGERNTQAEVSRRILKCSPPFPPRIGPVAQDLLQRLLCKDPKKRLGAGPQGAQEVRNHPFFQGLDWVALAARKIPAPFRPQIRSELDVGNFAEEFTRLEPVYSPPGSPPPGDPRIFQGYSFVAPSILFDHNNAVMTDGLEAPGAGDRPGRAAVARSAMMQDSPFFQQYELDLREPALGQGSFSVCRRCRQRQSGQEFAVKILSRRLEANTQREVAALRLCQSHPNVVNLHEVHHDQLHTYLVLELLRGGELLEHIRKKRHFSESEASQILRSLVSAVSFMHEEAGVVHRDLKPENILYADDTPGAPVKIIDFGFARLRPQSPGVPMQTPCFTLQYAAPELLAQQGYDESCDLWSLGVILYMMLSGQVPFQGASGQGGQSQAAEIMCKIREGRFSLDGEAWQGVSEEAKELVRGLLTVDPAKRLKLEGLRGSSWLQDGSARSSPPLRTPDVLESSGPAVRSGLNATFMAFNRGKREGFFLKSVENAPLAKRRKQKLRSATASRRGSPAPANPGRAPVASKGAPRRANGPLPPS

In general, Kd refers to the concentration at which binding is half-saturated. Regarding `CO[C@H]1C[C@@H]2CC[C@@H](C)[C@@](O)(O2)C(=O)C(=O)N2CCCC[C@H]2C(=O)O[C@H]([C@H](C)C[C@@H]2CC[C@@H](OP(C)(C)=O)[C@H](OC)C2)CC(=O)[C@H](C)/C=C(\C)[C@@H](O)[C@@H](OC)C(=O)[C@H](C)C[C@H](C)/C=C/C=C/C=C/1C` [RIDAFOROLIMUS], the Kd in assay [1], in assay [2], in assay [3], in assay [4], in [5] and in assay [6] was > 30 µM (inactive) throughout. In addition, the Kd in assay [7], in assay [8], in assay [9], in assay [10], in [11] and in assay [12] was > 30 µM (inactive) each time. In addition, the Kd in [13] was > 30 µM (inactive).
Regarding `N#CC1(c2ccc(NC(=O)c3cccnc3NCc3ccncc3)cc2)CCCC1` [RIVOCERANIB], the Kd in [1], in [2], in assay [3], in assay [4], in assay [5] and in [6] was > 30 µM (inactive) throughout. Also, the Kd in [7] is > 30 µM (inactive); in [8], > 30 µM (inactive); in [9] it was > 30 µM (inactive); in assay [10], > 30 µM (inactive); in assay [11] it was 0.111 µM (active); in assay [12], > 30 µM (inactive). In [13], the Kd is > 30 µM (inactive).
For `CN1CCN(CCOc2cc(OC3CCOCC3)c3c(Nc4c(Cl)ccc5c4OCO5)ncnc3c2)CC1` [SARACATINIB], the Kd in [1] is 0.029 µM; in [2], > 30 µM (inactive); in [3] it was 4.4 µM (active); in assay [4] it was > 30 µM (inactive); in [5], > 30 µM (inactive); in assay [6] it was > 30 µM (inactive). The Kd in assay [7] is > 30 µM (inactive); in [8], > 30 µM (inactive); in assay [9], > 30 µM (inactive); in assay [10] it was > 30 µM (inactive); in assay [11] it was 0.178 µM; in assay [12], > 30 µM (inactive). Besides, the Kd in [13] is > 30 µM (inactive).
For the molecule `Cn1cc(-c2cnn3c(N)c(Br)c([C@@H]4CCCNC4)nc23)cn1` [SCH-900776], the Kd in assay [1], in [2], in assay [3], in assay [4], in assay [5] and in assay [6] was > 30 µM (inactive) throughout. In addition, the Kd in [7] is > 30 µM (inactive); in assay [8] it was > 30 µM (inactive); in assay [9], > 30 µM (inactive); in [10], > 30 µM (inactive); in assay [11], 2.55 µM; in [12], 3.41 µM. Also, the Kd in assay [13] was > 30 µM (inactive).
As to `CO[C@H]1C[C@@H]2CC[C@@H](C)[C@@](O)(O2)C(=O)C(=O)N2CCCC[C@H]2C(=O)O[C@H]([C@H](C)C[C@@H]2CC[C@@H](O)[C@H](OC)C2)CC(=O)[C@H](C)/C=C(\C)[C@@H](O)[C@@H](OC)C(=O)[C@H](C)C[C@H](C)/C=C/C=C/C=C/1C` [SIROLIMUS], the Kd in assay [1], in [2], in [3], in [4], in [5] and in assay [6] was > 30 µM (inactive) in each case. Besides, the Kd in [7], in [8], in assay [9], in assay [10], in assay [11] and in assay [12] was > 30 µM (inactive) throughout. The Kd in [13] was > 30 µM (inactive).
`CO[C@H]1C[C@@H]2CC[C@@H](C)[C@@](O)(O2)C(=O)C(=O)N2CCCC[C@H]2C(=O)O[C@H]([C@H](C)C[C@@H]2CC[C@@H](OC(=O)C(C)(CO)CO)[C@H](OC)C2)CC(=O)[C@H](C)/C=C(\C)[C@@H](O)[C@@H](OC)C(=O)[C@H](C)C[C@H](C)/C=C/C=C/C=C/1C` [TEMSIROLIMUS]: the Kd in assay [1], in assay [2], in assay [3], in [4], in assay [5] and in assay [6] was > 30 µM (inactive) in each case. The Kd in [7], in [8], in assay [9], in assay [10], in assay [11] and in [12] was > 30 µM (inactive) each time. The Kd in assay [13] is > 30 µM (inactive).
As to `COc1cc2c(Nc3ccc(Cl)c(Cl)c3F)ncnc2cc1OC[C@@H]1C[C@@H]2CN(C)C[C@@H]2C1` [TESEVATINIB], the Kd was > 30 µM (inactive) in assay [1]; > 30 µM (inactive) in assay [2]; 0.073 µM (active) in assay [3]; > 30 µM (inactive) in assay [4]; > 30 µM (inactive) in [5]; > 30 µM (inactive) in assay [6]. The Kd in assay [7] is > 30 µM (inactive); in assay [8], > 30 µM (inactive); in assay [9], > 30 µM (inactive); in assay [10], > 30 µM (inactive); in assay [11], 0.064 µM (active); in assay [12] it was > 30 µM (inactive). Besides, the Kd in [13] is > 30 µM (inactive).

Source of the values: ChEMBL document CHEMBL3991601, “The target landscape of clinical kinase drugs” (Science, 2017).
